Reference: ChEMBL document CHEMBL3091372, “Design, synthesis, and biological testing of novel naphthoquinones as substrate-based inhibitors of the quinol/fumarate reductase from Wolinella succinogenes” (J Med Chem, 2013)
pIC50: −log10 of the molar value. Calls of active or inactive are those of the source. The rule behind the calls is not given here.

Key:
Wolinella succinogenes [1] = test: Inhibition of Wolinella succinogenes succinate/quinone reductase at 20 uM
Wolinella succinogenes [2] = test: Inhibition of Wolinella succinogenes quinol/fumarate reductase at 20 uM
[3] = target: T1, NAD(P)H dehydrogenase [quinone] 1 (Rattus norvegicus) (UniProt P05982); test: Inhibition of rat DT-diaphorase assessed as reduction of cytochrome c at 2 uM
T1 sequence (whole entry): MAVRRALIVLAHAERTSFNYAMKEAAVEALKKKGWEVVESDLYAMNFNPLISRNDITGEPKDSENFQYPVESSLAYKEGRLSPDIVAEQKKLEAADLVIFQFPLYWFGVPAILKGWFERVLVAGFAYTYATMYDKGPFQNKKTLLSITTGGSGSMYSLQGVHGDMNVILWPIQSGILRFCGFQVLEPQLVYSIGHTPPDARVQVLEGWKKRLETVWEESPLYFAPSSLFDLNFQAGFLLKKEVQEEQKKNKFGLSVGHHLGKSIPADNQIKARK

[4] = Inhibition of Wolinella succinogenes quinol/fumarate reductase
[5] = Inhibition of Wolinella succinogenes succinate/quinone reductase

| SMILES | inhibition call (active/not active) (Wolinella succinogenes [1]) | inhibition activity (active/not active) (Wolinella succinogenes [2]) | inhibition [3] | pIC50 [4] | pIC50 [5] |
| --- | --- | --- | --- | --- | --- |
| O=C1C(O)=C(CCCC2CCCCC2)C(=O)c2ccccc21 | Active | Active | – | – | – |
| CCCCCCCCCOC1=CC(=O)c2ccccc2C1=O | Active | Active | – | – | – |
| O=C1C(O)=C(CCCc2ccccc2)C(=O)c2ccccc21 | Active | Active | – | – | – |
| CCCCCCCCCOC1=CC(=O)C(=O)c2ccccc21 | inactive | inactive | – | – | – |
| CCCCCCCCCCC1=C(O)C(=O)c2ccccc2C1=O | Active | Active | – | – | – |
| O=C1C(O)=C(CCCCCCCCCCBr)C(=O)c2ccccc21 | inactive | inactive | – | – | – |
| CCCCCCCCCCC1=C(OC)C(=O)c2ccccc2C1=O | Active | Active | – | – | – |
| O=C1C(O)=C(CCCCC2CCCCC2)C(=O)c2ccccc21 | Active | Active | – | – | – |
| CCCCCCCCCCCCCCC1=C(O)C(=O)c2ccccc2C1=O | Active | Active | – | – | – |

The remaining lines, values ahead:

| inhibition call (active/not active) (Wolinella succinogenes [1]) | inhibition activity (active/not active) (Wolinella succinogenes [2]) | inhibition [3] | pIC50 [4] | pIC50 [5] | SMILES |
| --- | --- | --- | --- | --- | --- |
| Active | Active | – | – | – | CC1=C(O)C(=O)c2ccccc2C1=O |
| Active | Active | – | – | – | O=C1C=C(O)C(=O)c2ccccc21 |
| inactive | inactive | – | – | – | CC(C)(O)CCC1=C(O)C(=O)c2ccccc2C1=O |
| Active | Active | – | – | – | CCCCCCC1=C(OC)C(=O)c2ccccc2C1=O |
| Active | Active | – | – | – | CCCCCCC1=C(O)C(=O)c2ccccc2C1=O |
| Active | Active | – | – | – | CCCCCCC1=C(Br)C(=O)c2ccccc2C1=O |
| Active | Active | – | – | – | CCCCCCCCCCC1=C(Br)C(=O)c2ccccc2C1=O |
| Active | Active | – | – | – | CC(C)(C)CC1=C(O)C(=O)c2ccccc2C1=O |
| Active | Active | inactive | 6.21 | 6.22 | CCC1=C(Br)C(=O)c2ccccc2C1=O |
| Active | Active | – | – | – | CCC1=C(OC)C(=O)c2ccccc2C1=O |
| Active | Active | – | – | – | CCC1=C(O)C(=O)c2ccccc2C1=O |
| Active | Active | inactive | 7.21 | 5.96 | CC1=C(Br)C(=O)c2ccccc2C1=O |
